Experimental data reported in patent US20030215531A1, “Compositions and methods of use for extracts of Rutaceae plants” (priority 2000, published 2003).
Entries after “also recorded” stand apart in the source; their conditions may differ. Structures can show the parent of a compound that is named as a salt.

Key:
[1] = system: chicks; settings: previous research with this chick model (Watson et al., 1996, 1999); cited from earlier work
[2] = system: rats; test: formalin test in rats; type: in vivo
Source text: The analgesic effects of the extracts of this invention were studied using the formalin test (Dubuisson, D., Dennis, S. G., “The formalin test: a quantitative study of the analgesic effects of morphine, meperidine, and brainstem stimulation in rats and cats,” Pain, 1977, 4, pp. 161-164), a commonly used animal model to study nociceptive processes and analgesic drug effects.
Male Holtzman rats weighing 150-175 g were obtained from Harlan Spraque Dawley (Indianapolis, Ind.) and housed under a 12:12 h light/dark cycle in individual stainless steel cages in a temperature and humidity controlled vivarium. Food and water were available ad libitum. In session one, the animals were allowed to acclimate to the colony room for two days and handled for an additional two days prior to conducting the experiment in order to reduce experimenter-related stress. In session two, animals were allowed to acclimate to the colony room for four days, handled for three days, and acclimated to the apparatus for two days prior to conducting the experiment in order to reduce experimenter-related stress. In both sessions, the animals were food-deprived for 12 h before administering the test articles.
A Plexiglas viewing chamber (30×30×30 cm) was used for data collection.
Naproxen was used as a reference. Samples were tested at a concentration of 100 mg/kg except Formulation J which was tested at 200 mg/kg.
In session one, 10 minutes before the formalin observation period, the formulations were delivered via gavage in a volume of 0.5 ml to obtain a minimum response interval of 30 min between the injection time and the second phase of the formalin response. In session two, formulations were delivered via gavage of 1 ml. Each animal received two formulation dosings before the tests: 70 and 10 minutes before the beginning of the formalin observation period in order to obtain a 90 and 30 min injection intervals before the second phase of the formalin response.
Immediately after administration of 0.05 ml of 2.5% formalin into the hindpaw, rats were placed into 30×30×30 cm Plexiglas observation chamber. The observation session lasted 50 min. A dependent measure was the amount of time in which the injected paw was 1) in a lift position and 2) licked, bitten or shaken across ten 5-min blocks. A composite pain score as a function of ten 5-min blocks was calculated according to the procedures of Watson et al. (Watson, G. S., Sufka, K. J., Coderre, T. J., “Optimal scoring strategies and weights for the formalin test in rats,” Pain, 1997, 70, pp. 53-58). Sample sizes were n=5-6 rats per group. […]
Data were screened for homogeneity of variance and analyzed using repeated measures analysis of variance (ANOVA) and Fisher's LSD procedures.

## Cc1nnc2n1-c1ccc(Cl)cc1C(c1ccccc1)=NC2 [alprazolam]
[1]
  ED50 in attenuating separation-induced DVoc: 0.19 mg/kg

## COc1ccc2cc3[n+](cc2c1OC)CCc1cc2c(cc1-3)OCO2 [Formulation K, berberine HCl]
[2]; session 1, 100 mg/kg by gavage 10 min before observation, HCl, 100 mg/kg
  effect on formalin-induced pain behaviors (CPS), in words: attenuated pain-related behaviors during the second phase; also recorded: reduced pain during the fourth to the tenth time block

## CNC1=Nc2ccc(Cl)cc2C(c2ccccc2)=[N+]([O-])C1 [chlorodiazepoxide, chlordiazepoxide]
[1]
  ED50 in attenuating separation-induced DVoc: 3.75 mg/kg

## COc1ccc2cc([C@H](C)C(=O)O)ccc2c1 [Naproxen]
[2]; session 1, 100 mg/kg by gavage 10 min before observation, 100 mg/kg
  effect on formalin-induced pain behaviors (CPS), in words: did not affect pain behaviors
[2]; session 1, 100 mg/kg by gavage 10 min before observation, listed as naproxen, 100 mg/kg
  effect on formalin-induced pain behaviors (CPS), in words: had no effect on pain
[2]; session 2, two gavage dosings 70 and 10 min before observation, Naproxen 100 mg, Formulation J 200 mg/kg, b186 prints 100 mg/kg
  effect on formalin-induced pain behaviors (CPS), in words: attenuated the second phase of the formalin response

## O=C1Nc2ccc(Cl)cc2C(c2ccccc2Cl)=NC1O (stereo not shown) [lorazepam]
[1]
  ED50 in attenuating separation-induced DVoc: 0.34 mg/kg
